Experimental data: the NIST ThermoML archive (doi:10.1021/acs.jced.7b00039)
Numbers after ± are expanded uncertainties.

Tests used:
[1] = 100 kPa, Liquid; for viscosity: Cone and plate viscometry; for mass density: Vibrating tube method
[2] = wn = mass fraction of the nth substance listed; settings: 100 kPa, Liquid; for viscosity: Cone and plate viscometry; for mass density: Vibrating tube method

CC(CC(C)(C)C)CP(=O)([O-])CC(C)CC(C)(C)C.CCCCCCCCCCCCCC[P+](CCCCCC)(CCCCCC)CCCCCC
[1]
Settings | mass density [kg/m3] | viscosity [mPa·s]
298 K | 883.68 ± 9.7 | 1023 ± 120
310 K | 876.52 ± 9.6 | 521 ± 59
318 K | 871.79 ± 9.5 | 345 ± 38

CC(CC(C)(C)C)CP(=O)([O-])CC(C)CC(C)(C)C.CCCCCCCCCCCCCC[P+](CCCCCC)(CCCCCC)CCCCCC + O
[2]
Settings | mass density, 298 K [kg/m3] | mass density, 310 K [kg/m3] | mass density, 318 K [kg/m3] | viscosity, 298 K [mPa·s] | viscosity, 310 K [mPa·s] | viscosity, 318 K [mPa·s]
w2 = 0.00047 | 884.09 ± 9.7 | 876.93 ± 9.6 | 872.2 ± 9.5 | 1023 ± 120 | 521 ± 59 | 345 ± 38
w2 = 0.00122 | 884.98 ± 9.7 | 877.82 ± 9.6 | 873.07 ± 9.5 | 996 ± 120 | 512 ± 58 | 337 ± 37
w2 = 0.00289 | 886.11 ± 9.7 | 878.88 ± 9.6 | 874.07 ± 9.5 | 924 ± 110 | 476 ± 53 | 313 ± 34
w2 = 0.00582 | 886.78 ± 9.7 | 879.48 ± 9.6 | 874.64 ± 9.5 | 796 ± 92 | 401 ± 45 | 263 ± 28
w2 = 0.0147 | 887.75 ± 9.7 | 880.36 ± 9.6 | 875.46 ± 9.5 | 646 ± 74 | 321 ± 35 | 210 ± 23
w2 = 0.0317 | 890.65 ± 9.7 | 883.04 ± 9.6 | 878.08 ± 9.5 | 431 ± 48 | 211 ± 23 | 137 ± 14
w2 = 0.081 | 898.06 ± 9.6 | 890.2 ± 9.5 | 884.95 ± 9.4 | 261 ± 29 | 125 ± 13 | 81.6 ± 8.6
w2 = 0.142 | – | – | 893.78 ± 9.4 | – | – | 55.6 ± 6
w2 = 0.146 | – | 900.11 ± 9.5 | – | – | 79.7 ± 8.6 | –
w2 = 0.154 | – | – | – | 142 ± 15 | – | –
w2 = 0.156 | 909.07 ± 9.6 | – | – | 142 ± 15 | – | –

O [water]
[1]
Settings | mass density [kg/m3] | viscosity [mPa·s]
298 K | – | 0.89 ± 0.089
310 K | 993.35 ± 9.9 | 0.686 ± 0.069
318 K | – | 0.581 ± 0.058

O [water] + CC(CC(C)(C)C)CP(=O)([O-])CC(C)CC(C)(C)C.CCCCCCCCCCCCCC[P+](CCCCCC)(CCCCCC)CCCCCC
[2], w1 = 1
Settings | mass density [kg/m3] | viscosity [mPa·s]
298 K | – | 0.89 ± 0.089
310 K | 993.35 ± 9.9 | 0.686 ± 0.069
318 K | – | 0.581 ± 0.058
